Results from patent EP0151996A2, “Process for the Preparation of a double-chain plasminogen activator” (Asahi Kasei Kogyo Kabushiki Kaisha, priority 1984, dated 1985).
pIC50: −log10 of the molar value. Like-named read-outs stand apart in the source and are kept apart here.

Tests used:
[1] = target: T1, double-chain plasminogen activator (Homo sapiens, UniProt P00750); experiment: Influence of proteinase inhibitors on hydrolysis of Boc-Phe-Ser-Arg-MCA, double-chain form; type: biochemical
T1 construct: endogenous in cells; host or cells: human normal tissue derived cells (e.g. human embryonic kidney or lung cells); secreted protein purified from the culture liquor and converted by enzyme (plasmin) treatment or incubation
Procedure: (§1) To 50 µℓ of either each of the substances of this invention (100 U/mt) or urokinase (100 IU/mℓ) were added 50 µℓ of one of a number of solutions of various proteinase inhibitors and 300 µℓ of a 0.05 M tris-HCt buffer (pH 8.0) containing 0.1 M sodium chloride, and each reaction was effected at 37°C for 5 minutes. Thereafter, 100 µℓ of 0.1 mM of Boc-Phe-Ser-Arg-MCA (Peptide Institute, Inc.) was added, and each reaction was effected at 37°C.for 60 minutes. Thereafter, 0.5 mℓ of 20% acetic acid was added to terminate the reaction which was then measured for the formed aminomethylcoumarin at an excitation wavelength of 370 nm, a slit width of 2 nm, an emission wavelength of 460 nm and a slit width of 2 nm to determine the hydrolysis activity.
(§2) The concentrations (IC50) of the proteinase inhibitors which inhibit 50% of the activity of the substances of this invention were determined and the results are shown in Table 2.

[2] = target: T2, single-chain plasminogen activator (Homo sapiens, UniProt P00750); experiment: Influence of proteinase inhibitors on hydrolysis of Boc-Phe-Ser-Arg-MCA, single-chain form; type: biochemical
T2 construct: culturing human normal tissue derived cells such as cells derived from human embryonic kidney, intestines, lungs; endogenous in cells; host or cells: human normal tissue derived cells (e.g. human embryonic kidney or lung cells); secreted protein purified from the culture liquor in the presence of aprotinin
Procedure: as §1, §2

T2 sequence (P00750 36-562): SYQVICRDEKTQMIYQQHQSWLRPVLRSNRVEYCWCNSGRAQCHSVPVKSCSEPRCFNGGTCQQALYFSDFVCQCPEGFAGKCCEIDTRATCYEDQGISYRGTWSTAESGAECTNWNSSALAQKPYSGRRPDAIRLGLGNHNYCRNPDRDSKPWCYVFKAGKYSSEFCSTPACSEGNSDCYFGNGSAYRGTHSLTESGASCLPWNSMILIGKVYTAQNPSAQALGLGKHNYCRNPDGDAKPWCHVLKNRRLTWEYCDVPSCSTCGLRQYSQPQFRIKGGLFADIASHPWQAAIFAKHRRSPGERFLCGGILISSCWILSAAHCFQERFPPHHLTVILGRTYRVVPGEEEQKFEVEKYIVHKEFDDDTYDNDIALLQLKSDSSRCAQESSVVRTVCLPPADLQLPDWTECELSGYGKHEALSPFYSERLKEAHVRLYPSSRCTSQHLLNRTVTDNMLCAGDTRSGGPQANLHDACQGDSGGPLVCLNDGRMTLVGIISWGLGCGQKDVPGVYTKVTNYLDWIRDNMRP
T1 sequence (P00750 311-562 limits assumed): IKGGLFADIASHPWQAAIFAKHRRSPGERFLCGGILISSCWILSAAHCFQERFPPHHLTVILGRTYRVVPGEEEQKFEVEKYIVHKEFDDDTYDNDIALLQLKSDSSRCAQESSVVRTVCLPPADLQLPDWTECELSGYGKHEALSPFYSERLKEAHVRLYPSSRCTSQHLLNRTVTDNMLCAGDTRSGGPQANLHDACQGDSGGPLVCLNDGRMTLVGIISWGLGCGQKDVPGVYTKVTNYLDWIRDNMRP
T1 sequence (P00750 36-310 partner limits assumed): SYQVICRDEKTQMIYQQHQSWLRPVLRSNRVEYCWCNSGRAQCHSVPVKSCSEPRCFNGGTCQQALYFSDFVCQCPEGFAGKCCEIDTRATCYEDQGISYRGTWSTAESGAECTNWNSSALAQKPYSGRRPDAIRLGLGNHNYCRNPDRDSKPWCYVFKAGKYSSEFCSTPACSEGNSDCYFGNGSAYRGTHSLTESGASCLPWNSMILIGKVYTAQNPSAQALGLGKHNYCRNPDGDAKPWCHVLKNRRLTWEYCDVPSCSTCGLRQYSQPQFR

Structure (SMILES) | pIC50 [1] | pIC50 [2] | pIC50 ([1]; Double-Chain Structure 100 U/mℓ, substrate Boc-Phe-Ser-Arg-MCA, 37°C 60 minutes, read-out: IC50) | pIC50 ([2]; Single-Chain Structure 100 U/mℓ, substrate Boc-Phe-Ser-Arg-MCA, 37°C 60 minutes, read-out: IC50)
CC(=O)N[C@@H](CC(C)C)C(=O)N[C@@H](CC(C)C)C(=O)N[C@H](C=O)CCCNC(=N)N [Leupeptin] | 3.24 | 3.55 | – | –
CCOC(=O)c1ccc(OC(=O)CCCCCNC(=N)N)cc1 [FOY] | – | – | 4.04 | 4.77
